Read-outs that look alike come from different tables or passages of the source.
What was measured:
[1] = system: CE81T/VGH human esophageal squamous carcinoma cell line; assay: Trypan blue exclusion test, cell viability; assay type: cell-based; settings: read-out: IC50 (concentration required to reduce viability by 50%)
Experimental: (§1) Cell lines used in the present disclosure include human esophageal squamous carcinoma cell lines CE81T/VGH and TE-2, and human esophageal adenocarcinoma cell lines BE-3 and SKGT-4. Each cell lines were cultured and maintained in Dulbecco's modified Eagle media (DMEM) supplemented with 10% fetal calf serum, 100 IU/ml penicillin, 100 μg/ml streptomycin, and 2 mM glutamine in 5% CO2 at 37° C.
(§2) The dye exclusion test is used to determine the number of viable cells present in a cell suspension. […] In this test, the cells were first treated with a test compound (i.e., CH-205-O) for a certain period of time (e.g., 72 hours), then the cells were harvested and re-suspended in suitable buffer solution. The cell suspension was then mixed with trypan blue dye and then visually examined to determine whether cells had taken up or excluded the dye. A viable cell will have a clear cytoplasm, whereas a nonviable cell will have a blue cytoplasm. The concentration required to reduce viability by 50% (IC50) after 72 hours was extrapolated from the dose-response curves by different concentrations of the test compound using a second-order polynomial regression model and analyzing with SigmaPlot Software (Systat Software Inc., San Jose, Calif.).
(§3) The human esophageal cancer cell lines including squamous cell carcinoma cell lines CE81T/VGH and TE-2, and adenocarcinoma cell lines BE-3 and SKGT-4 were cultured and maintained by procedures described above in the “Materials and Methods” Section. Anti-proliferative activity of armillaridin (hereafter “CH-205-O”) on each cell lines was assessed by cell viability and cell cycle analysis.

[2] = system: SKGT-4 human esophageal adenocarcinoma cell line; assay: Trypan blue exclusion test, cell viability; assay type: cell-based; settings: SKGT-4, 72 hours, read-out: IC50 (concentration required to reduce viability by 50%)
Experimental: as §1, §2, §3

[3] = system: TE-2 human esophageal squamous carcinoma cell line; assay: Trypan blue exclusion test, cell viability; assay type: cell-based; settings: TE-2, 72 hours, read-out: IC50 (concentration required to reduce viability by 50%)
Experimental: as §1, §2, §3

[4] = system: BE-3 human esophageal adenocarcinoma cell line; assay: Trypan blue exclusion test, cell viability; assay type: cell-based; settings: BE-3, 72 hours, read-out: IC50 (concentration required to reduce viability by 50%)
Experimental: as §1, §2, §3

[5] = system: CE81T/VGH cells xenografted esophageal tumor; assay: Xenograft esophageal cancer mice model; assay type: in vivo, Balb/c nude mice
Experimental: For primary esophageal cancer model, total of 9 Balb/c nude mice at the age of 6 weeks were randomly divided into 3 groups, with 3 mice in each group. To start the experiment, each mice were injected with 5×10^5 CE81T/VGH cells subcutaneously to generate esophageal cancer on day 0, and then returned to culture for another 21 days to allow tumor progression. To evaluate the efficacy of the test compound, mice in the test group were given 3 doses of the test compound (CH-205-O at 80 mg/Kg/dose; or cisplatin at 2.5 mg/Kg/dose) every week, and total of […] were given during a period of 20 days after treatment started on day 22. Tumor sizes were measured using calipers. The body weight and the white blood cell counts of each mice were respectively recorded every day throughout the experiment. Tumor volume was calculated using the formula: volume=width^2×length×0.52.
Effects of CH-205-O of this disclosure on mice grafted with CE81T/VGH cells were investigated by measuring the grafted tumor volume; body weight and the number of white blood cells of the mice in accordance with steps described in “Materials and Methods” section. Results are illustrated in FIG. 3.

CE81T/VGH cells [6] = assay: Cell cycle analysis by flow cytometry (propidium iodine); assay type: cell-based, human
Experimental: FIG. 1 illustrates the effects of CH-205-O (i.e., armillaridin) on cell cycle distribution in CE81T/VGH cells in accordance with one embodiment of this invention, in which upper panels represented results obtained from CE81T/VGH cells treated with 0 (panel A), 10 μM (panel B) or 20 μM (panel C) of CH-205-O for 48 hours, and lower panels represented results obtained from CE81T/VGH cells treated with 0 (panel D), 10 μM (panel E) or 20 μM (panel F) of CH-205-O for 72 hours;
Cultured cells with or without pre-treatment of the compound of this invention (i.e., armillaridin at 10 or 20 μM for 48 or 72 hours) were harvested from the cultured media and fixed by incubating with 75% iced cold ethanol at 4° C. for at least over night. The fixed cells were then warmed up to room temperature and treated with RNAase A for about 30 min. Precipitated cells were collected by centrifugation and re-suspended in a buffer solution containing propidium iodine (20 μg/ml) before being subject to flow cytometry analysis, where cell numbers at respective cell cycles were determined.

CE81T/VGH cells [7] = assay: Radiation treatment and clonogenic assay; assay type: cell-based, human; settings: pre-treatment 2.5 or 5 μM for 24 hours, then 0-4 Gy radiation, colonies counted after 14 days
Experimental: Approximately 100 variable tumor cells were respectively plated onto 35-mm six-well culture dishes and were allowed to grow in DMEM medium contained 10% FCS mixed with 0, 1.25, 2.5 or 5 μM of the test compound of this disclosure (i.e., CH-205-O), and the test compound-treated cells were continued culture for 24 hours. The test compound was then washed out, and cells were subject to radiation treatment. Specifically, 6 MeV electron beam energy was delivered by a linear accelerator (Clinac 1800, Varian Associates, Inc., Palo Alto, Calif., USA) with a rate of 2.4 Gy/min at various dose including 0, 0.5, 1, 2, 3 and 4 Gy in a single fraction. Full electron equilibrium was ensured for each fraction by a parallel plate PR-60C ionization chamber (CAPINTEL, Inc., Ramsey, N.Y., USA).
After radiation treatment, cells were returned to the culture for another 14 days; then were stained with 3% crystal violet and the numbers of colony (≧50 cells) were counted.
To this purpose, cancerous cells were pre-treated with 1.25, 2.5 or 5 μM CH-205-O, before being treated with various doses of radiation in accordance with procedures described in “Materials and Methods” section. […]

[8] = long-term exposure, 80 mg/Kg/dose, 12 doses

- IC50 ([1]; 72 hours): 6.9 µM
- IC50 ([1]; Homo sapiens, CE81T, 72 h): ~7 µM
- IC50 ([2]; Homo sapiens, SKGT4, 72 h): ~5 µM
- IC50 [2]: 5.5 µM
- IC50 ([3]; Homo sapiens, 72 h): ~3 µM
- IC50 [3]: 3.4 µM
- IC50 [4]: 5.4 µM
- IC50 ([4]; Homo sapiens, 72 h): ~5 µM
- Number of white blood cells of the mice [5, 8]: does not affect
SMILES: COc1cc(O)c(C(=O)O[C@@H]2C[C@]3(C)C4CC(C)(C)CC4C=C(C=O)[C@]23O)c(C)c1Cl (stereo partly drawn) [CH-205-O, (2R,2aS,7bR)-3-formyl-2,2a,4a,5,6,7,7a,7b-octahydro-2a-hydroxy-6,6,7b-trimethyl-1H-cyclobuta[e]inden-2-yl 3-chloro-6-hydroxy-4-methoxy-2-methylbenzoate]
- Volume of the xenografted esophageal tumor ([5]; 80 mg/Kg/dose, at least 12 doses, compared with control mice (vehicle only)): effective in reducing the volume of the xenografted esophageal tumor significantly
- Body weight of the mice [5, 8]: does not affect
- Reduction of the size of the cancer as compared with control ([5]; long-term exposure, at least 12 doses within 20 days, 3 doses per week): at least 50%
- Cell cycle arrest at G2/M phase (CE81T/VGH cells [6]; 10 or 20 μM for 48 hours, CE81T/VGH cells): capable of arresting the CE81T/VGH cells at G2/M phase in a dose-dependent manner
- sub-G1 population of cells (CE81T/VGH cells [6]; 10 or 20 μM, treatment for 72 hours, CE81T/VGH cells): induce an increase in the sub-G1 population of cells
- Esophageal cancerous cells arrested at G2/M cycle (CE81T/VGH cells [6]; one specific example): at least 50%
- Susceptibility of CE81T/VGH cells to radiation treatment (colony formation) (CE81T/VGH cells [7]): capable of enhancing the susceptibility of CE81T/VGH cells to radiation treatment
